Laboratory results: ChEMBL document CHEMBL1135425, “Antitumor agents. 213. Modeling of epipodophyllotoxin derivatives using variable selection k nearest neighbor QSAR method” (J Med Chem, 2002)
Where “and” joins values, the source holds several entries; their conditions need not be identical. Equal values may be shown once.

Target: DNA topoisomerase II (Homo sapiens) (UniProt P11388+Q02880)
Assay: Percentage of intracellular covalent DNA-topoisomerase II complexes formed
Assay type: cell-based

| Structure (SMILES) | Complex formation |
| --- | --- |
| COc1cc([C@@H]2c3cc4c(cc3C(Nc3ccc(CC#N)cc3)[C@H]3COC(=O)[C@H]23)OCO4)cc(O)c1O (stereo partly specified) | 109% |
| COc1cc([C@@H]2c3cc4c(cc3[C@@H](NCc3ccc(F)cc3)[C@H]3COC(=O)[C@H]23)OCO4)cc(OC)c1O | 169% |
| COc1cc([C@@H]2c3cc4c(cc3[C@@H](O)[C@H]3COC(=O)[C@H]23)OCO4)cc(OC)c1O | 42.2% |
| COc1cc([C@@H]2c3cc4c(cc3[C@@H](Nc3cc(F)cc(F)c3)[C@H]3COC(=O)[C@H]23)OCO4)cc(OC)c1O | 115% |
| COc1cc([C@@H]2c3cc4c(cc3[C@@H](NCc3ccccc3[N+](=O)[O-])[C@H]3COC(=O)[C@H]23)OCO4)cc(OC)c1O | 144% |
| COc1cc([C@@H]2c3cc4c(cc3[C@@H](Nc3cc(N)ccc3O)[C@H]3COC(=O)[C@H]23)OCO4)cc(OC)c1O | 11% |
| COc1cc(CN[C@@H]2c3cc4c(cc3[C@@H](c3cc(OC)c(O)c(OC)c3)[C@H]3C(=O)OC[C@@H]32)OCO4)cc(OC)c1 | 144% |
| COc1cc([C@@H]2c3cc4c(cc3[C@@H](N[C@H](C)CO)[C@H]3COC(=O)[C@H]23)OCO4)cc(OC)c1O | 162% |
| COC1=CC([C@@H]2c3cc4c(cc3C(NC(=O)N(C)N=O)[C@H]3COC(=O)[C@H]23)OCO4)=CC(=O)C1=O (stereo partly specified) | 41% |
| COc1cc([C@@H]2c3cc4c(cc3[C@@H](NC(=O)c3ccc(C(C)=O)cc3)[C@H]3COC(=O)[C@H]23)OCO4)cc(OC)c1O | 124% |
| COc1cc([C@@H]2c3cc4c(cc3[C@@H](Nc3cccc(Cl)c3)[C@H]3COC(=O)[C@H]23)OCO4)cc(OC)c1O | 51% |
| COc1cc([C@@H]2c3cc4c(cc3[C@@H](NCCO)[C@H]3COC(=O)[C@H]23)OCO4)cc(OC)c1O | 121% |
| COC(=O)c1ccc(NC2c3cc4c(cc3[C@@H](c3cc(O)c(O)c(OC)c3)[C@H]3C(=O)OC[C@H]23)OCO4)cc1 (stereo partly specified) | 175% |
| COc1cc([C@@H]2c3cc4c(cc3[C@@H](Nc3ccccc3O)[C@H]3COC(=O)[C@H]23)OCO4)cc(OC)c1O | 151% |
| CCCN[C@@H]1c2cc3c(cc2[C@@H](c2cc(OC)c(O)c(OC)c2)[C@H]2C(=O)OC[C@@H]21)OCO3 | 69.7% |
| COc1cc([C@@H]2c3cc4c(cc3[C@@H](Nc3cc([N+](=O)[O-])cc([N+](=O)[O-])c3)[C@H]3COC(=O)[C@H]23)OCO4)cc(OC)c1O | 20% |
| COC(=O)c1ccc(N[C@@H]2c3cc4c(cc3[C@@H](c3cc(OC)c(O)c(OC)c3)[C@H]3C(=O)OC[C@@H]32)OCO4)cc1O | 129% |
| COc1cc2c(cc1OC)[C@@H](c1cc(OC)c(OC)c(OC)c1)[C@H]1C(=O)OC[C@@H]1C2Nc1ccc(C#N)cc1 (stereo partly specified) | 12% |
| COc1cc([C@@H]2c3cc4c(cc3[C@@H](Nc3ccc(N)cc3)[C@H]3COC(=O)[C@H]23)OCO4)cc(OC)c1O | 330% |
| COc1cc([C@@H]2c3cc4c(cc3[C@@H](Nc3ccccc3)[C@H]3COC(=O)[C@H]23)OCO4)cc(OC)c1O | 243% |
| COc1cc([C@@H]2c3cc4c(cc3[C@@H](NC(=O)c3cccc(N)c3)[C@H]3COC(=O)[C@H]23)OCO4)cc(OC)c1O | 149% |
| COc1cc([C@@H]2c3cc4c(cc3[C@@H](Nc3cccc(N)c3)[C@H]3COC(=O)[C@H]23)OCO4)cc(OC)c1O | 140% |

| Structure (SMILES) | Complex formation |
| --- | --- |
| COc1cc([C@@H]2c3cc4c(cc3[C@@H](Nc3ccc5c(c3)OCO5)[C@H]3COC(=O)[C@H]23)OCO4)cc(OC)c1O | 164% |
| COc1ccc(NC2c3cc4c(cc3[C@@H](c3cc(O)c(O)c(OC)c3)[C@H]3C(=O)OC[C@H]23)OCO4)cc1 (stereo partly specified) | 96% |
| COc1cc([C@@H]2c3cc4c(cc3[C@@H](NCc3cccc(C#N)c3)[C@H]3COC(=O)[C@H]23)OCO4)cc(OC)c1O | 225% |
| COc1cc([C@@H]2c3cc4c(cc3[C@@H](OC(=O)c3ccccc3)[C@H]3COC(=O)[C@H]23)OCO4)cc(OC)c1O | 94% |
| COc1cc([C@@H]2c3cc4c(cc3[C@@H](Nc3nc5ccccc5[nH]3)[C@H]3COC(=O)[C@H]23)OCO4)cc(OC)c1O | 58% |
| COc1cc([C@@H]2c3cc(O)c(O)cc3C(Nc3ccc(F)cc3)[C@H]3COC(=O)[C@H]23)cc(OC)c1OC (stereo partly specified) | 11% |
| COc1cc([C@@H]2c3cc(O)c(O)cc3[C@@H](Nc3ccccc3)[C@H]3COC(=O)[C@H]23)cc(OC)c1OC | 9% |
| COc1cc2c(cc1OC)[C@@H](Nc1ccc([N+](=O)[O-])cc1)[C@H]1COC(=O)[C@@H]1[C@@H]2c1cc(OC)c(OC)c(OC)c1 | 8% |
| COc1cc([C@@H]2c3cc4c(cc3[C@@H](NC(=O)Nc3ccc(Cl)cc3)[C@H]3COC(=O)[C@H]23)OCO4)cc(OC)c1O | 125% |
| COc1cc([C@@H]2c3cc4c(cc3[C@@H](Nc3cccc(CO)c3)[C@H]3COC(=O)[C@H]23)OCO4)cc(OC)c1O | 235% |
| COc1cc([C@@H]2c3cc4c(cc3[C@@H](NC(C)C)[C@H]3COC(=O)[C@H]23)OCO4)cc(OC)c1O | 109% |
| COc1cc([C@@H]2c3cc4c(cc3[C@@H](Nc3ccc([N+](=O)[O-])cc3)[C@H]3COC(=O)[C@H]23)OCO4)cc(OC)c1O | 323% |
| COc1cc([C@@H]2c3cc4c(cc3[C@@H](NCc3cccc([N+](=O)[O-])c3)[C@H]3COC(=O)[C@H]23)OCO4)cc(OC)c1O | 130% |
| COc1cc([C@@H]2c3cc4c(cc3[C@@H](O)[C@H]3COC(=O)[C@H]23)OCO4)c(Cl)c(OC)c1O | 15.6% |
| COc1cc([C@@H]2c3cc4c(cc3[C@@H](OC(=O)c3cccc(N)c3)[C@H]3COC(=O)[C@H]23)OCO4)cc(OC)c1O | 100% |
| COc1cc(N[C@@H]2c3cc4c(cc3[C@@H](c3cc(OC)c(O)c(OC)c3)[C@H]3C(=O)OC[C@@H]32)OCO4)c(C)cc1[N+](=O)[O-] | 3.5% |
| COc1cc([C@@H]2c3cc4c(cc3[C@@H](Nc3ccc(C(=O)O)cc3)[C@H]3COC(=O)[C@H]23)OCO4)cc(OC)c1O | 6.9% |
| COc1cc([C@@H]2c3cc4c(cc3C(Nc3ccc(Cl)cc3)[C@H]3COC(=O)[C@H]23)OCO4)cc(O)c1O (stereo partly specified) | 77% |
| COc1cc([C@@H]2c3cc4c(cc3[C@@H](O[C@@H]3O[C@@H]5CO[C@@H](C)O[C@H]5[C@H](O)[C@H]3O)[C@H]3COC(=O)[C@H]23)OCO4)c(Cl)c(OC)c1O | 6.1% |
| COc1cccc(N[C@@H]2c3cc4c(cc3[C@@H](c3cc(OC)c(O)c(OC)c3)[C@H]3C(=O)OC[C@@H]32)OCO4)c1 | 104% |
| COc1cc([C@@H]2c3cc(O)c(O)cc3C(Nc3ccc(C#N)cc3)[C@H]3COC(=O)[C@H]23)cc(OC)c1O (stereo partly specified) | 62% |
| COc1cc([C@@H]2c3cc4c(cc3[C@@H](N)[C@H]3COC(=O)[C@H]23)OCO4)cc(OC)c1O | 36.4% |

| Structure (SMILES) | Complex formation |
| --- | --- |
| COC(=O)c1cc(N[C@@H]2c3cc4c(cc3[C@@H](c3cc(OC)c(O)c(OC)c3)[C@H]3C(=O)OC[C@@H]32)OCO4)cc(C(=O)OC)c1 | 50% |
| COc1cc([C@@H]2c3cc4c(cc3[C@@H](NCCN(C)C)[C@H]3COC(=O)[C@H]23)OCO4)cc(OC)c1O | 183% and 203% |
| COc1cc([C@@H]2c3cc4c(cc3[C@@H](Nc3cc([N+](=O)[O-])ccc3O)[C@H]3COC(=O)[C@H]23)OCO4)cc(OC)c1O | 15% |
| COc1cc([C@@H]2c3cc4c(cc3[C@@H](NCc3ccc(C#N)cc3)[C@H]3COC(=O)[C@H]23)OCO4)cc(OC)c1O | 284% |
| COc1cc([C@@H]2c3cc4c(cc3[C@@H](Nc3ccc(NC(=O)c5cc(NC(=O)c6cc([N+](=O)[O-])cn6C)cn5C)cc3)[C@H]3COC(=O)[C@H]23)OCO4)cc(OC)c1O | 26% |
| COC1=CC([C@@H]2c3cc4c(cc3C(NC(=O)N(CCCl)N=O)[C@H]3COC(=O)[C@H]23)OCO4)=CC(=O)C1=O (stereo partly specified) | 7% |
| CCOC(=O)c1ccccc1N[C@@H]1c2cc3c(cc2[C@@H](c2cc(OC)c(O)c(OC)c2)[C@H]2C(=O)OC[C@@H]21)OCO3 | 4% |
| COc1cc2c(cc1OC)[C@@H](c1cc(OC)c(O)c(OC)c1)[C@H]1C(=O)OC[C@@H]1C2Nc1ccc(C#N)cc1 (stereo partly specified) | 125% |
| COc1cc([C@@H]2c3cc4c(cc3C(Nc3ccc(C#N)cc3)[C@H]3COC(=O)[C@H]23)OCO4)cc(O)c1O (stereo partly specified) | 146% |
| COc1cc([C@@H]2c3cc4c(cc3[C@@H](O[C@@H]3O[C@@H]5CO[C@@H](C)O[C@H]5[C@H](O)[C@H]3O)[C@H]3COC(=O)[C@H]23)OCO4)cc(OC)c1O | 100% |
| COc1cc([C@@H]2c3cc4c(cc3C(Nc3ccc(F)cc3)[C@H]3COC(=O)[C@H]23)OCO4)cc(O)c1O (stereo partly specified) | 117% |
| COc1cc([C@@H]2c3cc4c(cc3[C@@H](NCCCO)[C@H]3COC(=O)[C@H]23)OCO4)cc(OC)c1O | 89.2% |
| COc1cc([C@@H]2c3cc4c(cc3[C@@H](NCc3cccc(Cl)c3)[C@H]3COC(=O)[C@H]23)OCO4)cc(OC)c1O | 159% |
| COc1cc([C@@H]2c3cc4c(cc3C(Nc3ccc(C(C)=O)cc3)[C@H]3COC(=O)[C@H]23)OCO4)cc(O)c1O (stereo partly specified) | 147% |
| CCOC(=O)c1ccc(NC2c3cc(O)c(O)cc3[C@@H](c3cc(OC)c(OC)c(OC)c3)[C@H]3C(=O)OC[C@H]23)cc1 (stereo partly specified) | 22% |
| COc1cc([C@@H]2c3cc(O)c(O)cc3[C@@H](Nc3ccccc3)[C@H]3COC(=O)[C@H]23)cc(OC)c1O | 4% |
| COc1cc([C@@H]2c3cc4c(cc3[C@@H](NC(=O)c3ccccc3F)[C@H]3COC(=O)[C@H]23)OCO4)cc(OC)c1O | 128% |
| COc1cc([C@@H]2c3cc4c(cc3[C@@H](Nc3cccc(C#N)c3)[C@H]3COC(=O)[C@H]23)OCO4)cc(OC)c1O | 137% |
| COc1cc([C@@H]2c3cc4c(cc3C(Nc3cccc([N+](=O)[O-])c3)[C@H]3COC(=O)[C@H]23)OCO4)cc(O)c1O (stereo partly specified) | 75% |
| COc1cc([C@@H]2c3cc4c(cc3[C@@H](NCc3cccc(F)c3)[C@H]3COC(=O)[C@H]23)OCO4)cc(OC)c1O | 216% |
| COc1cc([N+](=O)[O-])ccc1N[C@@H]1c2cc3c(cc2[C@@H](c2cc(OC)c(O)c(OC)c2)[C@H]2C(=O)OC[C@@H]21)OCO3 | 83% |
| COc1cc([C@@H]2c3cc4c(cc3[C@@H](NCc3ccccc3)[C@H]3COC(=O)[C@H]23)OCO4)cc(OC)c1O | 181% |
